Experiments:
rice = experiment: Test D flooded paddy test; format: in vivo, Oryza sativa; conditions: 250 g ai/ha, applied to paddy water, visual rating after 13 to 14 days, scale 0 to 100 (0 no effect, 100 complete control)
Outline: (§1)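 Plants at the 2-leaf stage were grown in pots flooded to 3 cm, and compound was applied directly into the paddy water, with depth kept throughout. After 13–14 days in a greenhouse, injury was rated visually against untreated controls on a 0–100 scale (100 = complete control); a dash means not tested.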

corn [1] = experiment: Test C postemergence; format: in vivo, Zea mays; conditions: 10 days
Outline: (§2)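 Soil-applied (pre) and foliar (post, 1–2 leaf, 2–10 cm) sprays; surfactant-containing non-phytotoxic solvent vehicle; loam/sand substrate. Readout: visual % control at 10 d, greenhouse, versus untreated.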

wheat [2] = experiment: Test C postemergence; format: in vivo, Triticum aestivum; conditions: 10 days
Outline: as §2

soybean [3] = experiment: Test C postemergence; format: in vivo, Glycine max; conditions: 10 days
Outline: as §2

corn [4] = experiment: Test C preemergence; format: in vivo, Zea mays; conditions: for Plant response rating, Corn: Preemergence; for Corn plant response rating: preemergence
Outline: as §2

green foxtail [5] = experiment: Test C postemergence; format: in vivo, Setaria viridis; conditions: 10 days
Outline: as §2

sedge, umbrella = experiment: Test D flooded paddy test; format: in vivo, Cyperus difformis; conditions: 250 g ai/ha, applied to paddy water, visual rating after 13 to 14 days, scale 0 to 100 (0 no effect, 100 complete control)
Outline: as §1

oat, wild [6] = experiment: Test C preemergence; format: in vivo, Avena fatua; conditions: for Plant response rating, Oat, Wild: Preemergence; for Oat, Wild plant response rating: preemergence
Outline: as §2

blackgrass [7] = experiment: Test C preemergence; format: in vivo, Alopecurus myosuroides; conditions: for Plant response rating, Blackgrass: Preemergence; for Blackgrass plant response rating: preemergence
Outline: as §2

pigweed, palmer [8] = experiment: Test C postemergence; format: in vivo, Amaranthus palmeri; conditions: 10 days
Outline: as §2

ragweed [9] = experiment: Test C preemergence; format: in vivo, Ambrosia artemisiifolia; conditions: for Plant response rating, Ragweed: Preemergence; for Ragweed plant response rating: preemergence
Outline: as §2

oat, wild [10] = experiment: Test C postemergence; format: in vivo, Avena fatua; conditions: 10 days
Outline: as §2

soybean [11] = experiment: Test C preemergence; format: in vivo, Glycine max; conditions: for Plant response rating, Soybean: Preemergence; for Soybean plant response rating: preemergence
Outline: as §2

ragweed [12] = experiment: Test C postemergence; format: in vivo, Ambrosia artemisiifolia; conditions: 10 days
Outline: as §2

barnyardgrass [13] = experiment: Test C postemergence; format: in vivo, Echinochloa crusgalli; conditions: 10 days
Outline: as §2

galium = experiment: Test C postemergence; format: in vivo, Galium aparine; conditions: 10 days
Outline: as §2

ryegrass, Italian [14] = experiment: Test C preemergence; format: in vivo, Lolium multiflorum; conditions: for Plant response rating, Ryegrass, Italian: Preemergence; for Ryegrass, Italian plant response rating: preemergence
Outline: as §2

pigweed, palmer [15] = experiment: Test C preemergence; format: in vivo, Amaranthus palmeri; conditions: for Plant response rating, Pigweed, Palmer: Preemergence; for Pigweed, Palmer plant response rating: preemergence
Outline: as §2

kochia [16] = experiment: Test C preemergence; format: in vivo, Bassia scoparia; conditions: for Plant response rating, Kochia: Preemergence; for Kochia plant response rating: preemergence
Outline: as §2

horseweed = experiment: Test C postemergence; format: in vivo, Erigeron canadensis; conditions: 10 days
Outline: as §2

wheat [17] = experiment: Test C preemergence; format: in vivo, Triticum aestivum; conditions: for Plant response rating, Wheat: Preemergence; for Wheat plant response rating: preemergence
Outline: as §2

barnyardgrass [18] = experiment: Test C preemergence; format: in vivo, Echinochloa crusgalli; conditions: for Barnyardgrass plant response rating: preemergence; for Plant response rating, Barnyardgrass: Preemergence
Outline: as §2

ducksalad = experiment: Test D flooded paddy test; format: in vivo, Heteranthera limosa; conditions: 250 g ai/ha, applied to paddy water, visual rating after 13 to 14 days, scale 0 to 100 (0 no effect, 100 complete control)
Outline: as §1

ryegrass, Italian [19] = experiment: Test C postemergence; format: in vivo, Lolium multiflorum; conditions: 10 days
Outline: as §2

barnyardgrass [20] = experiment: Test D flooded paddy test; format: in vivo, Echinochloa crus-galli; conditions: 250 g ai/ha, applied to paddy water, visual rating after 13 to 14 days, scale 0 to 100 (0 no effect, 100 complete control)
Outline: as §1

blackgrass [21] = experiment: Test C postemergence; format: in vivo, Alopecurus myosuroides; conditions: 10 days
Outline: as §2

green foxtail [22] = experiment: Test C preemergence; format: in vivo, Setaria viridis; conditions: for Plant response rating, Foxtail, Green: Preemergence; for Foxtail, Green plant response rating: preemergence
Outline: as §2

kochia [23] = experiment: Test C postemergence; format: in vivo, Bassia scoparia; conditions: 10 days
Outline: as §2

[24] = 125 g ai/ha, postemergence, 0 to 100 scale, 0 no effect, 100 complete control
[25] = Postemergence, 500 g ai/ha, visual 0 to 100 scale (0 no effect, 100 complete control)
[26] = 500 g ai/ha, visual rating after 10 days, 0 to 100 scale (0 no effect, 100 complete control)
[27] = Test C, 125 g ai/ha, 0 to 100 scale (0 no effect, 100 complete control)
[28] = 500 g ai/ha, postemergence, 0 to 100 scale (0 no effect, 100 complete control)
[29] = Postemergence, 125 g ai/ha, 0 to 100 scale (0 no effect, 100 complete control)
[30] = 500 g ai/ha, 0 to 100 scale (0 no effect, 100 complete control)
[31] = 125 g ai/ha, 0 to 100 scale, 0 no effect, 100 complete control

C[C@H]1CN(C(=O)c2cc(-n3cnc(C(C)(C)C)n3)cc3c2OCCO3)c2cccc(Cl)c2O1 [Compound 154]
Plant response rating, Rice (Flood) (rice): 10
Plant response rating, Corn (corn [1]; [24]): 20
Plant response rating, Corn (corn [1]; [25]): 50
Plant response rating, Wheat (wheat [2]; [24]): 10
Plant response rating, Wheat (wheat [2]; [25]): 30
Plant response rating, Soybean (soybean [3]; [24]): 90
Plant response rating, Soybean (soybean [3]; [25]): 100
Plant response rating, Corn (corn [4]; [26]): 30
Corn plant response rating (corn [4]; [27]): 0
Plant response rating, Foxtail, Green (green foxtail [5]; [24]): 40
Plant response rating, Foxtail, Green (green foxtail [5]; [25]): 90
Plant response rating, Sedge, Umbrella (Flood) (sedge, umbrella): 70
Plant response rating, Oat, Wild (oat, wild [6]; [26]): 30
Oat, Wild plant response rating (oat, wild [6]; [27]): 20
Plant response rating, Blackgrass (blackgrass [7]; [26]): 60
Blackgrass plant response rating (blackgrass [7]; [27]): 20
Plant response rating, Pigweed, Palmer (pigweed, palmer [8]; [24]): 90
Plant response rating, Pigweed, Palmer (pigweed, palmer [8]; [25]): 100
Plant response rating, Ragweed (ragweed [9]; [26]): 100
Ragweed plant response rating (ragweed [9]; [27]): 50
Plant response rating, Oat, Wild (oat, wild [10]; [24]): 10
Plant response rating, Oat, Wild (oat, wild [10]; [25]): 20
Plant response rating, Soybean (soybean [11]; [26]): 100
Soybean plant response rating (soybean [11]; [27]): 40
Plant response rating, Ragweed (ragweed [12]; [24]): 100
Plant response rating, Ragweed (ragweed [12]; [25]): 100
Plant response rating, Barnyardgrass (barnyardgrass [13]; [24]): 20
Plant response rating, Barnyardgrass (barnyardgrass [13]; [25]): 50
Plant response rating, Galium (galium; [24]): 100
Plant response rating, Galium (galium; [25]): 100
Plant response rating, Ryegrass, Italian (ryegrass, Italian [14]; [26]): 90
Ryegrass, Italian plant response rating (ryegrass, Italian [14]; [27]): 70
Plant response rating, Pigweed, Palmer (pigweed, palmer [15]; [26]): 100
Pigweed, Palmer plant response rating (pigweed, palmer [15]; [27]): 100
Plant response rating, Kochia (kochia [16]; [26]): 100
Kochia plant response rating (kochia [16]; [27]): 100
Plant response rating, Horseweed (horseweed; [24]): 80
Plant response rating, Horseweed (horseweed; [25]): 70
Plant response rating, Wheat (wheat [17]; [26]): 60
Wheat plant response rating (wheat [17]; [27]): 10
Barnyardgrass plant response rating (barnyardgrass [18]; 125 g ai/ha, 0 to 100 scale (0 no effect, 100 complete control)): 70
Plant response rating, Barnyardgrass (barnyardgrass [18]; [26]): 100
Plant response rating, Ducksalad (Flood) (ducksalad): 10
Plant response rating, Ryegrass, Italian (ryegrass, Italian [19]; [24]): 30
Plant response rating, Ryegrass, Italian (ryegrass, Italian [19]; [25]): 70
Plant response rating, Barnyardgrass (Flood) (barnyardgrass [20]): 15
Plant response rating, Blackgrass (blackgrass [21]; [24]): 20
Plant response rating, Blackgrass (blackgrass [21]; [25]): 90
Plant response rating, Foxtail, Green (green foxtail [22]; [26]): 100
Foxtail, Green plant response rating (green foxtail [22]; [27]): 100
Plant response rating, Kochia (kochia [23]; [24]): 100
Plant response rating, Kochia (kochia [23]; [25]): 100

Cc1ccc(-n2cnc(C#N)n2)cc1C(=O)N1C[C@H](C)Oc2c(Cl)cccc21 [Compound 363]
Plant response rating, Rice (Flood) (rice): 0
Plant response rating, Corn (corn [1]; [28]): 10
Plant response rating, Corn (corn [1]; [29]): 10
Plant response rating, Wheat (wheat [2]; [28]): 20
Plant response rating, Wheat (wheat [2]; [29]): 20
Plant response rating, Soybean (soybean [3]; [28]): 100
Plant response rating, Soybean (soybean [3]; [29]): 100
Corn plant response rating (corn [4]; [30]): 0
Plant response rating, Corn (corn [4]; [31]): 0
Plant response rating, Foxtail, Green (green foxtail [5]; [28]): 50
Plant response rating, Foxtail, Green (green foxtail [5]; [29]): 30
Plant response rating, Sedge, Umbrella (Flood) (sedge, umbrella): 0
Oat, Wild plant response rating (oat, wild [6]; [30]): 0
Plant response rating, Oat, Wild (oat, wild [6]; [31]): 0
Blackgrass plant response rating (blackgrass [7]; [30]): 30
Plant response rating, Blackgrass (blackgrass [7]; [31]): 0
Plant response rating, Pigweed, Palmer (pigweed, palmer [8]; [28]): 90
Plant response rating, Pigweed, Palmer (pigweed, palmer [8]; [29]): 70
Ragweed plant response rating (ragweed [9]; [30]): 80
Plant response rating, Ragweed (ragweed [9]; [31]): 20
Plant response rating, Oat, Wild (oat, wild [10]; [28]): 20
Plant response rating, Oat, Wild (oat, wild [10]; [29]): 0
Soybean plant response rating (soybean [11]; [30]): 0
Plant response rating, Soybean (soybean [11]; [31]): 20
Plant response rating, Ragweed (ragweed [12]; [28]): 50
Plant response rating, Ragweed (ragweed [12]; [29]): 0
Plant response rating, Barnyardgrass (barnyardgrass [13]; [28]): 50
Plant response rating, Barnyardgrass (barnyardgrass [13]; [29]): 20
Plant response rating, Galium (galium; [28]): 100
Plant response rating, Galium (galium; [29]): 100
Ryegrass, Italian plant response rating (ryegrass, Italian [14]; [30]): 70
Plant response rating, Ryegrass, Italian (ryegrass, Italian [14]; [31]): 30
Pigweed, Palmer plant response rating (pigweed, palmer [15]; [30]): 100
Plant response rating, Pigweed, Palmer (pigweed, palmer [15]; [31]): 80
Kochia plant response rating (kochia [16]; [30]): 0
Plant response rating, Kochia (kochia [16]; [31]): 0
Plant response rating, Horseweed (horseweed; [28]): 0
Plant response rating, Horseweed (horseweed; [29]): 0
Wheat plant response rating (wheat [17]; [30]): 0
Plant response rating, Wheat (wheat [17]; [31]): 0
Barnyardgrass plant response rating (barnyardgrass [18]; [30]): 60
Plant response rating, Barnyardgrass (barnyardgrass [18]; [31]): 40
Plant response rating, Ducksalad (Flood) (ducksalad): 0
Plant response rating, Ryegrass, Italian (ryegrass, Italian [19]; [28]): 50
Plant response rating, Ryegrass, Italian (ryegrass, Italian [19]; [29]): 40
Plant response rating, Barnyardgrass (Flood) (barnyardgrass [20]): 0
Plant response rating, Blackgrass (blackgrass [21]; [28]): 60
Plant response rating, Blackgrass (blackgrass [21]; [29]): 30
Foxtail, Green plant response rating (green foxtail [22]; [30]): 100
Plant response rating, Foxtail, Green (green foxtail [22]; [31]): 100
Plant response rating, Kochia (kochia [23]; [28]): 80
Plant response rating, Kochia (kochia [23]; [29]): 40

Source: patent US20260262643A1, “HERBICIDAL BENZOXAZINES” (FMC CORPORATION, priority 2022, published 2026)
